In the kinase profiling compilation of Christmann-Franck et al. (2016):

Experiments:
Assay in all cases: KINOMEscan competition binding
Conditions in all cases: compound 10.0 µM
[1] = target: NTRK1 (human) (UniProt P04629)
[2] = target: PRKX (human) (UniProt P51817)
[3] = target: GAK (human) (UniProt O14976)
[4] = target: ALK (human) (UniProt Q9UM73)
[5] = target: HUNK (human) (UniProt P57058)
[6] = target: PAK4 (human) (UniProt O96013)
[7] = target: MAK (human) (UniProt P20794)
[8] = target: NTRK2 (human) (UniProt Q16620)
[9] = target: SIK2 (human) (UniProt Q9H0K1)
[10] = target: LCK (human) (UniProt P06239)
[11] = target: EPHA6 (human) (UniProt Q9UF33)
[12] = target: GRK1 (human) (UniProt Q15835)
[13] = target: MELK (human) (UniProt Q14680)
[14] = target: ADCK4 (human) (UniProt Q96D53)
[15] = tested on: EGFR (human), P00533 [T790M/L858R]
[16] = target: CSNK1G1 (human) (UniProt Q9HCP0)
[17] = target: PKN1 (human) (UniProt Q16512)
[18] = target: MAPK10 (human) (UniProt P53779)
[19] = target: DCLK2 (human) (UniProt Q8N568)
[20] = tested on: EGFR (human), P00533 [752-759 del]
[21] = target: CDK5 (human) (UniProt Q00535)
[22] = target: EPHB6 (human) (UniProt O15197)
[23] = target: MARK2 (human) (UniProt Q7KZI7)
[24] = target: MKNK2 (human) (UniProt Q9HBH9)
[25] = target: BMPR2 (human) (UniProt Q13873)
[26] = target: YES1 (human) (UniProt P07947)
[27] = target: PTK6 (human) (UniProt Q13882)
[28] = target: PKN2 (human) (UniProt Q16513)
[29] = target: DYRK1B (human) (UniProt Q9Y463)
[30] = target: RPS6KA5 KD1 (human) (UniProt O75582)
[31] = target: PRKCD (human) (UniProt Q05655)
[32] = target: MERTK (human) (UniProt Q12866)
[33] = target: CDK7 (human) (UniProt P50613)
[34] = target: ROS1 (human) (UniProt P08922)
[35] = target: RAF1 (human) (UniProt P04049)
[36] = target: CAMK2B (human) (UniProt Q13554)
[37] = target: MAP3K7 (human) (UniProt O43318)
[38] = target: CDC42BPB (human) (UniProt Q9Y5S2)
[39] = target: STK11 (human) (UniProt Q15831)
[40] = target: MAP3K1 (human) (UniProt Q13233)

NTRK1 (human), sequence (P04629 whole entry, looked up): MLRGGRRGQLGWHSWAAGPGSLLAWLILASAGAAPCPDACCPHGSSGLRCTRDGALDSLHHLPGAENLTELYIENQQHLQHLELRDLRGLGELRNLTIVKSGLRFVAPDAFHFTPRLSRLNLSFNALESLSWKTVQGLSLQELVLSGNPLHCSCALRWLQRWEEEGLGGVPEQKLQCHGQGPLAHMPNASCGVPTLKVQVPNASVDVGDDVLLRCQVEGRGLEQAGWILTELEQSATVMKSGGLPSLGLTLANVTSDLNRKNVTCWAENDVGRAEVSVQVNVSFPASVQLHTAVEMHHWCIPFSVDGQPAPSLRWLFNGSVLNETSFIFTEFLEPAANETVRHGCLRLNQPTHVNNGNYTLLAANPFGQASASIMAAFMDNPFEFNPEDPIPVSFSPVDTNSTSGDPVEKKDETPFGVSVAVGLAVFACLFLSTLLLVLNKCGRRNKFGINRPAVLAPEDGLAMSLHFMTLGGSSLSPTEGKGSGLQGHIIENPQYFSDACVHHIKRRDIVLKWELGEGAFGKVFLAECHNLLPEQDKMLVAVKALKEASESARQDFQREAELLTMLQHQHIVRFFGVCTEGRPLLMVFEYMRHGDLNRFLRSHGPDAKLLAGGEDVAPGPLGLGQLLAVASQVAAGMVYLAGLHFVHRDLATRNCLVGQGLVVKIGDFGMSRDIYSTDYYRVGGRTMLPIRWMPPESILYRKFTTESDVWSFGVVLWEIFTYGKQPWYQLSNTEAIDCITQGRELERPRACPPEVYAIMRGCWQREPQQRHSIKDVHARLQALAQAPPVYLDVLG
CAMK2B (human), sequence (Q13554 whole entry, looked up): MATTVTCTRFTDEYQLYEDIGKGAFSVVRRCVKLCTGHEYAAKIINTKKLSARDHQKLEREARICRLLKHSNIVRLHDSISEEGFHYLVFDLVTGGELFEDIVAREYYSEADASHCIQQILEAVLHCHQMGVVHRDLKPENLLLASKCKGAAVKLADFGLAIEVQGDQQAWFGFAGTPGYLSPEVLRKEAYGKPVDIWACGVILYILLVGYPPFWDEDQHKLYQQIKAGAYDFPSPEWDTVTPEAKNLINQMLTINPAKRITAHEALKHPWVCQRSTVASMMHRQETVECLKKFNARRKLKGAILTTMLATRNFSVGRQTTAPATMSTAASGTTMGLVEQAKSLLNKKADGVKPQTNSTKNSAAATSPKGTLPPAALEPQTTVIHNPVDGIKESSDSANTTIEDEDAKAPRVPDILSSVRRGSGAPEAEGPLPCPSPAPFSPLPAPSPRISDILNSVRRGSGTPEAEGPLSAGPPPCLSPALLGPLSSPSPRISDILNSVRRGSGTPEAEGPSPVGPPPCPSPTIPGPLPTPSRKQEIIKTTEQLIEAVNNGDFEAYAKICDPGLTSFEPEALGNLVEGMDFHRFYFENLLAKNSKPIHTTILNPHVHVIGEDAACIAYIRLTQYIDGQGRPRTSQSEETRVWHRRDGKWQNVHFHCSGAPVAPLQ
MELK (human), sequence (Q14680 whole entry, looked up): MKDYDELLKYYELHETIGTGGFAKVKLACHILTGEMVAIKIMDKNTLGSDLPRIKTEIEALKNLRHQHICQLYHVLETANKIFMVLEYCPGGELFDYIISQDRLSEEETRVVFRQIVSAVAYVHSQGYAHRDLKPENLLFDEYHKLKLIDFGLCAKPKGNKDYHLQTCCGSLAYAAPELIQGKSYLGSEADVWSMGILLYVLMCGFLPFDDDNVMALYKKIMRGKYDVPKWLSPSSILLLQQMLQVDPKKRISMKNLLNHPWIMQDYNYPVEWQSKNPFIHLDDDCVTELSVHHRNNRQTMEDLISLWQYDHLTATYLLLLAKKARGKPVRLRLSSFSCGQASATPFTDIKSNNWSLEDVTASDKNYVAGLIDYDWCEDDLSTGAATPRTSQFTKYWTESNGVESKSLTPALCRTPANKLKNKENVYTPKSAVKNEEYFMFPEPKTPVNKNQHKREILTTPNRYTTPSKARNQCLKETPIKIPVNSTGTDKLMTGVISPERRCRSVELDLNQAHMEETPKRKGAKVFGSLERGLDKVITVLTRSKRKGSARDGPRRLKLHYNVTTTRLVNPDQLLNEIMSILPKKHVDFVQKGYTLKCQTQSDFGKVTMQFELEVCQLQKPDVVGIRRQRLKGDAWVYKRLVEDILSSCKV
EPHB6 (human), sequence (O15197 whole entry, looked up): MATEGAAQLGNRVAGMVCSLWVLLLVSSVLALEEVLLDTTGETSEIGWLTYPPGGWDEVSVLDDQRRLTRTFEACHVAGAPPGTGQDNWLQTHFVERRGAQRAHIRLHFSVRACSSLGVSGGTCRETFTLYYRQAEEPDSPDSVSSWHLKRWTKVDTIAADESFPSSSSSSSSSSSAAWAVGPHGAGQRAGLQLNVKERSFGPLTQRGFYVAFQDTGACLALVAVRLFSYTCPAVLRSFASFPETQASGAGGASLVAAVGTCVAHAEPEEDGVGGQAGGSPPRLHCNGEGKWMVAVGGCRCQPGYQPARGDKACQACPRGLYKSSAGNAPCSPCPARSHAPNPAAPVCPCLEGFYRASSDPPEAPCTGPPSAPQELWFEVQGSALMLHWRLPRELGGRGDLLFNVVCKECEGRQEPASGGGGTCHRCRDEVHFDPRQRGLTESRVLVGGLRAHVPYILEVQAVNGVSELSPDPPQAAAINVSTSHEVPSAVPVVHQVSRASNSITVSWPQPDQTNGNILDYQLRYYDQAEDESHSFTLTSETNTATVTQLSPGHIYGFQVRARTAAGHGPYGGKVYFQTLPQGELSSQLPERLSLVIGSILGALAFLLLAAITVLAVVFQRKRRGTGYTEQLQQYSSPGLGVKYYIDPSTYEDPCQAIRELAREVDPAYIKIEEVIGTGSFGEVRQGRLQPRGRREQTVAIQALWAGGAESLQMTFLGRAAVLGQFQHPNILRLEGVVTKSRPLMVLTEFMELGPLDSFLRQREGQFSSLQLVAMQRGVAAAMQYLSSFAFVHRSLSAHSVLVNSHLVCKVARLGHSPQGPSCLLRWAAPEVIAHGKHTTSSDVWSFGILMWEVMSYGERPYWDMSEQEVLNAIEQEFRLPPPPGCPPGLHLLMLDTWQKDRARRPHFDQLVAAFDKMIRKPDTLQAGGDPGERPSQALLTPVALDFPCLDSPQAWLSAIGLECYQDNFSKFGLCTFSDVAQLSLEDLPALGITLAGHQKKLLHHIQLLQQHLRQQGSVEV
SIK2 (human), sequence (Q9H0K1 whole entry, looked up): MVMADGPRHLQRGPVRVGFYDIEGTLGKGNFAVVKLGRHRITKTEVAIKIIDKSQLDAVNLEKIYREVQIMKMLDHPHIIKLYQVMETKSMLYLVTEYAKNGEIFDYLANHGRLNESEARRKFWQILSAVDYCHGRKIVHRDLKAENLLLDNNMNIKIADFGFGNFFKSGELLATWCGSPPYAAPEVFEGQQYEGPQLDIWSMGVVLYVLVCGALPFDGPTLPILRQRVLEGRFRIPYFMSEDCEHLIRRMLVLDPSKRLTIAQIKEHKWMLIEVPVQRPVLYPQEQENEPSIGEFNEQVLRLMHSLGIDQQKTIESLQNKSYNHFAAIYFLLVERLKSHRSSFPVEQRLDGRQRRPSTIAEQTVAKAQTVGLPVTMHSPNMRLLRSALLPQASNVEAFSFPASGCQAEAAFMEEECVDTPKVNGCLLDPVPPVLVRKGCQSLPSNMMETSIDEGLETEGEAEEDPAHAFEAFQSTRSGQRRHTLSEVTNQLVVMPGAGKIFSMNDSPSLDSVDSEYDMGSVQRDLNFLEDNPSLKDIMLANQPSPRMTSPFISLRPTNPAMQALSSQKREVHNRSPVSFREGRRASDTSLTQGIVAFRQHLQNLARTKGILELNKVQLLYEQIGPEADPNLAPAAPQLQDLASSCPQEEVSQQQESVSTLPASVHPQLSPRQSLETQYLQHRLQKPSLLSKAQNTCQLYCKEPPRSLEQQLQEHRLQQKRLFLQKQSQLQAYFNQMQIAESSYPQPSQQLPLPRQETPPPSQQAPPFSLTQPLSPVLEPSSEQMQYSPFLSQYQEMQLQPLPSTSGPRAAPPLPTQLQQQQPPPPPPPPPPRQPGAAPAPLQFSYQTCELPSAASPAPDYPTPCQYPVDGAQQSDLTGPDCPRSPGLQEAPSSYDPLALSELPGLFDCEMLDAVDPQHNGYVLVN
RPS6KA5 KD1 (human), sequence (O75582 whole entry, looked up): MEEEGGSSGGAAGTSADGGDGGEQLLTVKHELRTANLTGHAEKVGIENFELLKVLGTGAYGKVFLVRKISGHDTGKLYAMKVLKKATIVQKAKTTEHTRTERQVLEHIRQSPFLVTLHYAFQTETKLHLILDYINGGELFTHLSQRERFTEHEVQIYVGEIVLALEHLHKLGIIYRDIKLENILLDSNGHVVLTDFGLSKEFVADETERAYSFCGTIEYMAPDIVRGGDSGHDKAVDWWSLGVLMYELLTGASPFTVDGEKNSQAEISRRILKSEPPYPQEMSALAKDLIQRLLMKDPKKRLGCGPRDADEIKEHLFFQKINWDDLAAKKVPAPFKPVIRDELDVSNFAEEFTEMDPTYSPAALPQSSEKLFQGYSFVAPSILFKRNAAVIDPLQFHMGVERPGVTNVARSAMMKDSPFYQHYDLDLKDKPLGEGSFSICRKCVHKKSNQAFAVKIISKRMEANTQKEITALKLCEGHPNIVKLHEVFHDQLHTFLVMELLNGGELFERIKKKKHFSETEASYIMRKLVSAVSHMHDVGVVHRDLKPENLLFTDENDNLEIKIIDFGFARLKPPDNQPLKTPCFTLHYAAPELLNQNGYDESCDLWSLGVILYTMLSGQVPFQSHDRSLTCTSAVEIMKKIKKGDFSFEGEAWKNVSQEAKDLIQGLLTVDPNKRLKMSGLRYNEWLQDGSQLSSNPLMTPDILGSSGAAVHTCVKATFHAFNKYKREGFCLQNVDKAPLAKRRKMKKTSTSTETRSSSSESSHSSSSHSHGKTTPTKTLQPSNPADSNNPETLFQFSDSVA

Row | Compound | kinase still bound, per cent of control [1] [%] | kinase still bound, per cent of control [2] [%] | kinase still bound, per cent of control [3] [%] | kinase still bound, per cent of control [4] [%] | kinase still bound, per cent of control [5] [%] | kinase still bound, per cent of control [6] [%] | kinase still bound, per cent of control [7] [%] | kinase still bound, per cent of control [8] [%] | kinase still bound, per cent of control [9] [%] | kinase still bound, per cent of control [10] [%] | kinase still bound, per cent of control [11] [%] | kinase still bound, per cent of control [12] [%] | kinase still bound, per cent of control [13] [%] | kinase still bound, per cent of control [14] [%] | kinase still bound, per cent of control [15] [%] | kinase still bound, per cent of control [16] [%] | kinase still bound, per cent of control [17] [%] | kinase still bound, per cent of control [18] [%] | kinase still bound, per cent of control [19] [%] | kinase still bound, per cent of control [20] [%] | also measured
1 | COc1cc2ncnc(-n3nc(-c4ccccn4)nc3N)c2cc1OC | 48 | 79 | 2.6 | 45 | 41 | 72 | 100 | 47 | 61 | 5.2 | 23 | 41 | 9.2 | 14 | 84 | 33 | 100 | 1.4 | 88 | 58 | kinase still bound, per cent of control [21]: 100%; kinase still bound, per cent of control [22]: 2.2%; kinase still bound, per cent of control [23]: 53%; kinase still bound, per cent of control [24]: 8.4%; kinase still bound, per cent of control [25]: 88%; kinase still bound, per cent of control [26]: 77%; kinase still bound, per cent of control [27]: 51%; kinase still bound, per cent of control [28]: 79%; kinase still bound, per cent of control [29]: 2%; kinase still bound, per cent of control [30]: 84%; kinase still bound, per cent of control [31]: 76%; kinase still bound, per cent of control [32]: 29%; kinase still bound, per cent of control [33]: 5.4%; kinase still bound, per cent of control [34]: 25%; kinase still bound, per cent of control [35]: 59%; kinase still bound, per cent of control [36]: 37%; kinase still bound, per cent of control [37]: 15%; kinase still bound, per cent of control [38]: 100%; kinase still bound, per cent of control [39]: 100%; kinase still bound, per cent of control [40]: 66%
2 | O=C(Nc1cccc(Nc2ncc(Br)c(NCCc3cnc[nH]3)n2)c1)N1CCCC1 | 0.2 | 0.2 | 1.4 | 14 | 73 | 4 | 100 | 0.45 | 8 | 3.4 | 54 | 47 | 2.2 | 33 | 26 | 54 | 0.3 | 0.1 | 70 | 66 | kinase still bound, per cent of control [21]: 24%; kinase still bound, per cent of control [22]: 0.2%; kinase still bound, per cent of control [23]: 0.4%; kinase still bound, per cent of control [24]: 0.1%; kinase still bound, per cent of control [25]: 13%; kinase still bound, per cent of control [26]: 31%; kinase still bound, per cent of control [27]: 45%; kinase still bound, per cent of control [28]: 4.6%; kinase still bound, per cent of control [29]: 35%; kinase still bound, per cent of control [30]: 57%; kinase still bound, per cent of control [31]: 12%; kinase still bound, per cent of control [32]: 0.5%; kinase still bound, per cent of control [33]: 0.55%; kinase still bound, per cent of control [34]: 97%; kinase still bound, per cent of control [35]: 100%; kinase still bound, per cent of control [36]: 35%; kinase still bound, per cent of control [37]: 1.3%; kinase still bound, per cent of control [38]: 82%; kinase still bound, per cent of control [39]: 3.2%; kinase still bound, per cent of control [40]: 34%
3 | COc1ccc(N(C(=O)Oc2c(C)cccc2C)c2ccnc(Nc3ccc(N4CCN(C)CC4)cc3)n2)c(OC)c1 | 78 | 41 | 5.6 | 0.35 | 9 | 97 | 69 | 82 | 7.6 | 0.1 | 0 | 100 | 46 | 20 | 14 | 95 | 15 | 37 | 44 | 1 | kinase still bound, per cent of control [21]: 98%; kinase still bound, per cent of control [22]: 1.2%; kinase still bound, per cent of control [23]: 87%; kinase still bound, per cent of control [24]: 90%; kinase still bound, per cent of control [25]: 0.2%; kinase still bound, per cent of control [26]: 0.05%; kinase still bound, per cent of control [27]: 0%; kinase still bound, per cent of control [28]: 19%; kinase still bound, per cent of control [29]: 68%; kinase still bound, per cent of control [30]: 100%; kinase still bound, per cent of control [31]: 9.8%; kinase still bound, per cent of control [32]: 20%; kinase still bound, per cent of control [33]: 100%; kinase still bound, per cent of control [34]: 0.8%; kinase still bound, per cent of control [35]: 95%; kinase still bound, per cent of control [36]: 98%; kinase still bound, per cent of control [37]: 57%; kinase still bound, per cent of control [38]: 2.9%; kinase still bound, per cent of control [39]: 60%; kinase still bound, per cent of control [40]: 32%
